{
  "source": "paper PMC11311842",
  "about": "“Radiosynthesis and Preclinical Evaluation of ^18F-Labeled Estradiol Derivatives with Different Lipophilicity for PET Imaging of Breast Cancer” (Cancers, 2024)",
  "key": {"[1]": {"experiment": "Determination of logD7.4 (n-octanol/PBS)", "assay_type": "physicochemical", "conditions": "n-octanol/PBS pH 7.4; mean ± SD, three independent experiments", "protocol": "For the determination of the octanol–water coefficient, an aliquot of the radiotracer was added to PBS (500 µL, pH 7.4) and n-octanol (500 µL) in an Eppendorf tube. The mixture was vortexed and subsequently centrifuged, each for 1 min. Three samples (each 100 µL) were taken from both the PBS and the n-octanol layer and measured using a γ-counter (Wallac Wizard, PerkinElmer, Waltham, MA, USA). The logD7.4 was expressed as log(cpmoctanol/cpmPBS) and reported as mean ± SD. The determination of logD7.4 was performed in three independent experiments, each performed in triplicate."}, "[2]": {"experiment": "Stability in human serum and plasma in vitro (radio-HPLC)", "assay_type": "in vitro ADME", "conditions": "37 °C; for Stability in human serum and plasma (in words): over 120 min, radio-HPLC; for Stability in Human Serum or Plasma: over 2 h, same for serum and plasma", "protocol": "An aliquot of the formulated tracer solution (40 µL containing approx. 10 MBq in 0.9% NaCl) was incubated with 200 µL of human plasma (Hölzel Diagnostika Handels GmbH, from CosmoBio USA, Carlsbad, CA, USA) or human serum (Biochrom GmbH, Merck KGaA, Darmstadt, Germany), respectively, at 37 °C. After various time points (5–120 min), aliquots (30 µL) were taken and quenched in methanol or 10% TFA (30 µL). The samples were centrifuged for 3 min, and subsequently the supernatants were analyzed by radio-HPLC (Chromolith RP-18e, 100 × 4.6 mm, 10–100% acetonitrile (with 0.1% TFA) in water (with 0.1% TFA) over 5 min, 4 mL/min)."}, "[3]": {"experiment": "Plasma protein binding (MicroSpin G-50 columns)", "assay_type": "in vitro ADME", "conditions": "human plasma, 10 min, 37 °C", "protocol": "MicroSPin G-50 columns (Cytiva, Merck KGaA, Darmstadt, Germany) were preconditioned according to the manufacturer’s protocol and the experiment was performed as follows. In brief, an aliquot of the tracer (1 µL, approx. 250 kBq) was added to NaCl (0.9%, 200 µL, negative control) or human plasma (200 µL) and incubated for 10 min at 37 °C. A sample from the plasma or negative control (40 µL) was carefully added to the resin, and the column was placed in an Eppendorf tube. After centrifugation (2 min, 2000× g), the eluate and the resin were collected separately. Both were measured for radioactivity using a γ-counter (Wallac Wizard, PerkinElmer, Waltham, MA, USA), and the radioactivity eluted from the resin was calculated as a percentage of the total amount of radioactivity. The determination of plasma protein binding was performed twice in duplicate."}, "ER+ MCF-7 cells": {"tested_on": "ER+ MCF-7 cells", "experiment": "Cellular uptake assay in ER+ cells", "assay_type": "cell-based, human", "protocol": "One day prior to the experiment, MCF-7 and MDA-MB-231 cells were seeded in 24-well plates (350,000 cells/well). The cells were washed once with cell medium. The cells were incubated with the respective radiotracer in cell medium (510 µL) for 10, 20, 30, 60, 90, 120 min at 37 °C in the absence and presence of estradiol (E2, final concentration of 72 µM). After incubation, the plates were set on ice and washed with ice-cold PBS twice, following cell lysis and detachment with NaOH (0.1 M, 750 µL, 37 °C). The cells were transferred to counting tubes, and the radioactivity was measured using a γ-counter (Wallac Wizard, PerkinElmer, Waltham, MA, USA). The protein concentration of each well was determined in duplicate using Bradford reagent (Bio-Rad Laboratories GmbH, Feldkirchen, Germany). The cellular uptake assay was performed in 2–4 independent experiments, each performed in quadruplicate for each time point."}, "[4]": {"conditions": "cited from earlier work"}, "[5]": {"experiment": "Hydrolysis of the Si-^18F bond observed on formulation", "assay_type": "physicochemical", "conditions": "slightly acidic conditions (HBSS pH 6.4)", "protocol": "Aiming at a more lipophilic derivatization of EE for comparison to the above-described hydrophilic derivatization, the well-known isotopic ^19F-^18F exchange reaction according to Schirrmacher et al. was applied to the radiosynthesis of ^18F-SiFA-EE, starting from ^19F-SiFA-EE. After cartridge purification and reformulation in HBSS (pH 6.4), ^18F-SiFA-EE was obtained in an AY of 44% (referred to [^18F]fluoride) after a total synthesis time of 27 min, with an Am of up to 28 GBq/µmol. It should be noted here that the obtained Am of ^18F-SiFA-EE was strongly dependent on the starting activity."}, "[6]": {"tested_on": "MCF-7 tumor-bearing nude mice", "set-up": "method as in PMID 29466767", "conditions": "60 min p.i., cited from earlier work"}, "[7]": {"tested_on": "MCF-7 (ER+) breast cancer cells", "experiment": "Competitive cellular uptake with ^18F-TA-Glyco-EE as radioligand", "assay_type": "cell-based", "conditions": "Homo sapiens, MCF7, 1 h, read-out: IC50 for inhibition of cellular uptake of ^18F-TA-Glyco-EE", "protocol": "Competitive uptake experiments were performed using ^18F-TA-Glyco-EE as a radioligand. One day prior to the experiment, MCF-7 cells were seeded in 96-well plates (50,000 cells/well). The cell medium was removed, and the respective estradiol derivative, as a competitor of the radioligand, was added in concentrations from 0 to 500 µM in 90 µL cell culture medium each. After ^18F-TA Glyco-EE (10 µL, approx. 1 MBq/well) was added, the incubation proceeded for 60 min at 37 °C. The plate was set on ice and washed with ice-cold PBS, followed by cell lysis and detachment with NaOH (0.1 M, 200 µL, 37 °C). The cells were transferred into counting tubes, and the radioactivity was measured using a γ-counter (Wallac Wizard, PerkinElmer, Waltham, MA, USA). One single experiment was performed in triplicate."}, "MCF-7 and T47D tumors": {"tested_on": "MCF-7 and T47D tumors", "conditions": "cited from earlier work"}},
  "note": "Where two headings read alike, the source gives them in different places.",
  "data": [
    {"compound": "CC12CCC3c4ccc(O)cc4CCC3C1CCC2(O)c1cn(CCOCCOCCOCC[18F])nn1", "note": "(stereo not shown) [^18F-PEG-EE]", "values": [
      {"measurement": "logD7.4", "setting": "[1]", "result": "2.2 ± 0.1"},
      {"measurement": "Stability in human serum and plasma (in words)", "setting": "[2]", "result": "stable in both plasma and serum over 120 min"},
      {"measurement": "Stability in Human Serum or Plasma", "setting": "[2]", "result": ">99", "unit": "% over 2 h ^2"},
      {"measurement": "Plasma Protein Binding", "setting": "[3]", "result": "71 ± 4", "unit": "%"},
      {"measurement": "Cellular uptake relative to ^18F-Glyco-EE", "setting": "ER+ MCF-7 cells; ER+ MCF-7 cells", "result": "four times higher"},
      {"measurement": "Cellular uptake in MCF-7 cells", "setting": "ER+ MCF-7 cells; after 60 min, 37 °C, absence of E2", "result": 27, "unit": "%/mg"}
    ]},
    {"compound": "C#C[C@]1(O)CC[C@H]2[C@@H]3CCc4cc(O)ccc4[C@H]3CC[C@@]21C", "note": "[EE, 17α-ethinylestradiol]", "values": [
      {"measurement": "calculated logKow", "setting": "[4]", "result": 3.7}
    ]},
    {"compound": "CC12CCC3c4ccc(O)cc4CCC3C1CCC2(O)c1cn(Cc2ccc([Si]([18F])(C(C)(C)C)C(C)(C)C)cc2)nn1", "note": "(stereo not shown) [^18F-SiFA-EE]", "values": [
      {"measurement": "Hydrolytic stability of the Si-^18F bond", "setting": "[5]", "result": "highly amenable to hydrolysis of the Si-^18F bond"}
    ]},
    {"compound": "CC12CCC3c4ccc(O)cc4CCC3C1CCC2(O)c1cn(CCOCCOCC[18F])nn1", "note": "(stereo not shown) [^18F-FETE]", "values": [
      {"measurement": "Tumor uptake", "setting": "[6]; MCF-7 tumor-bearing nude mice", "result": 4, "unit": "%ID/g"},
      {"measurement": "Tumor uptake after fulvestrant pretreatment", "setting": "[6]; MCF-7 xenografts", "result": 1.5, "unit": "%ID/g"}
    ]},
    {"compound": "CC(=O)OC1C(CF)OC(n2cc(C3(O)CCC4C5CCc6cc(O)ccc6C5CCC43C)nn2)C(OC(C)=O)C1OC(C)=O", "note": "(stereo not shown) [TA-Glyco-EE]", "values": [
      {"measurement": "IC50", "setting": "[7]", "result": 194, "unit": "µM"}
    ]},
    {"compound": "C[C@]12CC[C@@H]3c4ccc(O)cc4CC[C@H]3[C@@H]1CC[C@@]2(O)c1cn(CCOCCOCCOCCF)nn1", "note": "[PEG-EE]", "values": [
      {"measurement": "IC50", "setting": "[7]", "result": 1270, "unit": "µM"}
    ]},
    {"compound": "CC12CCC3c4ccc(O)cc4CCC3C1CCC2(O)c1cn(C2OC(C[18F])C(O)C(O)C2O)nn1", "note": "(stereo not shown) [^18F-Glyco-EE]", "values": [
      {"measurement": "logD7.4", "setting": "[1]", "result": "1.7 ± 0.1"},
      {"measurement": "Stability in human serum and plasma (in words)", "setting": "[2]", "result": "stable in both plasma and serum over 120 min"},
      {"measurement": "Stability in Human Serum or Plasma", "setting": "[2]", "result": ">99", "unit": "% over 2 h ^2"},
      {"measurement": "Total cellular uptake in MCF-7 cells", "setting": "ER+ MCF-7 cells; after 90 min, 37 °C, absence of E2", "result": 7, "unit": "%/mg"}
    ]},
    {"compound": "CC12CCC3c4ccc(O)cc4CCC3C1CC([18F])C2O", "note": "(stereo not drawn) [FES, 16α-[^18F]fluoroestradiol]", "values": [
      {"measurement": "logD7.4", "setting": "[4]", "result": 2.5},
      {"measurement": "Uptake in MCF-7 and T47D tumors", "setting": "MCF-7 and T47D tumors", "result": "< 0.4", "unit": "%ID/g"}
    ]},
    {"compound": "C[C@]12CC[C@@H]3c4ccc(O)cc4CC[C@H]3[C@@H]1CC[C@@H]2O", "note": "[E2, 17β-estradiol, reference compound]", "values": [
      {"measurement": "IC50", "setting": "[7]; MCF-7 cells, 60 min, 37 °C, single experiment in triplicate", "result": 56, "unit": "µM"}
    ]}
  ]
}
